Converted amounts (≈) assume the structure as drawn. Positions of bridges follow the written chain, without caps; N, C: chain ends. Non-standard residues stand in square brackets, D forms with d. Residues, ends and D or L forms follow the SMILES beside them. *: point of attachment. Decanoyl(3R-OH) = CCCCCCC[C@@H](O)CC(=O)*; dDab = NCC[C@@H](N)C(=O)O; Dab = NCC[C@H](N)C(=O)O
What was measured:
A. baumannii ATCC 19606 = conditions: ATCC 19606
In short: (§1)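 Mid-log cultures grown in Mueller Hinton broth at 37° C were tested by 2-fold broth microdilution at 5×10^5 CFU/mL final. Compounds were dissolved in water and tested over a final range of 32 to 0.015 μg/mL.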

A. baumannii GN_093 PmxR = conditions: GN 093 PmxR
In short: as §1

E. coli ATCC 25922 = conditions: ATCC 25922
In short: as §1

K. pneumoniae ATCC 13883 = conditions: ATCC 13883
In short: as §1

[1] = system: K. pneumoniae ATCC 700603, MDR; conditions: ATCC 700603
In short: as §1

[2] = system: K. pneumoniae ATCC BAA-2146, NDM-1 pos; conditions: ATCC BAA-2146
In short: as §1

[3] = system: K. pneumoniae GN_102 PmxR; conditions: GN 102 PmxR
In short: as §1

[4] = system: K. pneumoniae GN_106, PmxR; conditions: GN 106, PmxR
In short: as §1

P. aeruginosa ATCC 27853 = conditions: ATCC 27853
In short: as §1

[5] = system: P. aeruginosa GN_043, PmxR
In short: as §1

[6] = system: P. aeruginosa GN_105, PmxR; conditions: GN 105, PmxR
In short: as §1

[7] = system: S. aureus ATCC 25923, MSSA; conditions: ATCC 25923
In short: as §1

in vitro = conditions: human
Description: Cytotoxicity of the synthesised peptides was evaluated by comparison with commercially available colistin (polymyxin E), polymyxin B (Sigma chemical Co., St. Louis, Mo., U.S.A.) and synthetic octapeptin C4 by conducting lactate dehydrogenase (LDH) assay. CC50 values calculated based on curve fitting of dose dependent inhibition of cell growth represented the cytotoxicity of the peptide. Human kidney 2 (HK2) cells were seeded as 2000 cells per well in a 384 well cell culture plate in a final volume of 20 μL in DMEM/F12 medium (Invitrogen #11330057), in which 10% of FBS was added. Cells were incubated for 24 hours at 37° C., 5% CO2 to allow cells to attach to the plates. Similar conditions were employed for HEK293 and HepG2 cytotoxicity assays.
Colistin and polymyxin B were tested from a range of 2 mM to 0.9 μM. 120 μL of the 1 mM stock solutions in water of each synthesised peptide were freeze-dried and processed for LDH assay. After freeze-dry procedure, the compounds were reconstituted into 600 μM solutions using culture media. All tested compounds were diluted from 600 μM to 0.27 μM in 3-fold dilutions. Then 20 μL of each dilution was added into 20 uL of culture medium in quadruplicate to reach the final concentrations. The cells were incubated with the compounds for 24 h at 37° C., 5% CO2. After the incubation, 5 μL of culture medium was added to 50 μL of LDH assay buffer and incubated for 1 h at room temperature. The absorbance was read at 450 nm using Polarstar. The data was then analysed by Prism software. […] Nephrotoxicity Assessment in Human Proximal Tubule Cells.

| SMILES | MIC A. baumannii ATCC 19606 (A. baumannii ATCC 19606) | MIC A. baumannii GN_093 PmxR (A. baumannii GN_093 PmxR) | MIC E. coli ATCC 25922 (E. coli ATCC 25922) | MIC K. pneumoniae ATCC 13883 (K. pneumoniae ATCC 13883) | MIC K. pneumoniae ATCC 700603, MDR [1] | MIC K. pneumoniae ATCC BAA-2146, NDM-1 pos [2] | MIC K. pneumoniae GN_102 PmxR [3] | MIC K. pneumoniae GN_106, PmxR [4] | MIC P. aeruginosa ATCC 27853 (P. aeruginosa ATCC 27853) | MIC P. aeruginosa GN_043, PmxR [5] | MIC P. aeruginosa GN_105, PmxR [6] | MIC S. aureus ATCC 25923, MSSA [7] | CC50 at 24 h (in vitro) | also measured |
| --- | --- | --- | --- | --- | --- | --- | --- | --- | --- | --- | --- | --- | --- | --- |
| CCCCCCC[C@@H](O)CC(=O)N[C@H](CCN)C(=O)N[C@H]1CCNC(=O)[C@H](CC(C)C)NC(=O)[C@H](CCN)NC(=O)[C@H](CCN)NC(=O)[C@H](C)NC(=O)[C@@H](Cc2ccccc2)NC(=O)[C@H](CCN)NC1=O [compound 4946, 3(R)OH-nC9CO-D-Dab-cyc[L-Dab-L-Dab-D-Phe-L-Ala-L-Dab-L-Dab-L-Leu]] ({Decanoyl(3R-OH)}-[dDab][Dab][Dab][dF]A[Dab][Dab]L; lactam 2-C) | 16 µg/mL (≈ 16 µM) | 16 µg/mL (≈ 16 µM) | 16 µg/mL (≈ 16 µM) | 8 µg/mL (≈ 7.98 µM) | 8 µg/mL (≈ 7.98 µM) | 8 µg/mL (≈ 7.98 µM) | 4 µg/mL (≈ 3.99 µM) | 16 µg/mL (≈ 16 µM) | 1 µg/mL (≈ 0.998 µM) | 0.5 µg/mL (≈ 0.499 µM) | 16 µg/mL (≈ 16 µM) | >32 µg/mL | 107 µM | – |
| CCCCCCC[C@@H](O)CC(=O)N[C@H](CCN)C(=O)N[C@H]1CCNC(=O)[C@H](CC(C)C)NC(=O)[C@H](CCN)NC(=O)[C@H](CCN)NC(=O)[C@H](CC(C)C)NC(=O)[C@H](C)NC(=O)[C@H](CCN)NC1=O [compound 4947, 3(R)OH-nC9CO-D-Dab-cyc[L-Dab-L-Dab-L-Ala-L-Leu-L-Dab-L-Dab-L-Leu]] ({Decanoyl(3R-OH)}-[dDab][Dab][Dab]AL[Dab][Dab]L; lactam 2-C) | >32 µg/mL | >32 µg/mL | >32 µg/mL | >32 µg/mL | >32 µg/mL | >32 µg/mL | >32 µg/mL | >32 µg/mL | 32 µg/mL (≈ 33 µM) | >32 µg/mL | >32 µg/mL | >32 µg/mL | 213 µM | – |
| CCCCCCC[C@@H](O)CC(=O)N[C@H](CCN)C(=O)N[C@H]1CCNC(=O)[C@H](CC(C)C)NC(=O)[C@H](CCN)NC(=O)[C@H](CCN)NC(=O)[C@H](CC(C)C)NC(=O)[C@@H](Cc2ccccc2)NC(=O)[C@H](C)NC1=O [compound 4948, 3(R)OH-nC9CO-D-Dab-cyc[L-Dab-L-Ala-D-Phe-L-Leu-L-Dab-L-Dab-L-Leu]] ({Decanoyl(3R-OH)}-[dDab][Dab]A[dF]L[Dab][Dab]L; lactam 2-C) | – | – | – | – | – | – | – | – | – | – | – | – | 112 µM | MIC, A. baumannii ATCC 19606 (A. baumannii ATCC 19606): >32 µg/mL; MIC, A. baumannii Cl Ptyela 10073 4512:2, PmxR (A. baumannii GN_093 PmxR): >32 µg/mL; MIC, E. coli ATCC 25922 (E. coli ATCC 25922): 16 µg/mL (≈ 15.8 µM); MIC, K. pneumoniae ATCC 13883 (K. pneumoniae ATCC 13883): 16 µg/mL (≈ 15.8 µM); MIC, K. pneumoniae ATCC 700603, MDR [1]: 16 µg/mL (≈ 15.8 µM); MIC, K. pneumoniae ATCC BAA-2146, NDM-1 pos [2]: 8 µg/mL (≈ 7.88 µM); MIC, K. pneumoniae Cl Koprana 10065 0661:1, PmxR [3]: 8 µg/mL (≈ 7.88 µM); MIC, K. pneumoniae Cl 138-16347-20362, PmxR [4]: 16 µg/mL (≈ 15.8 µM); MIC, P. aeruginosa ATCC 27853 (P. aeruginosa ATCC 27853): 1 µg/mL (≈ 0.985 µM); MIC, P. aeruginosa FADDI-PA070, PmxR ([5]; Table 5, polymyxin-resistant): 1 µg/mL (≈ 0.985 µM); MIC, P. aeruginosa PA9704, PmxR [6]: >32 µg/mL; MIC, S. Aureus ATCC 25923, MSSA [7]: >32 µg/mL |

— patent US11279733B2, “Peptide antibiotics” (priority 2017, dated 2022)
